For one data set, the target named is T1, MsI7OMT (Medicago sativa, UniProt O24529).
T1 sequence (O24529 1-352): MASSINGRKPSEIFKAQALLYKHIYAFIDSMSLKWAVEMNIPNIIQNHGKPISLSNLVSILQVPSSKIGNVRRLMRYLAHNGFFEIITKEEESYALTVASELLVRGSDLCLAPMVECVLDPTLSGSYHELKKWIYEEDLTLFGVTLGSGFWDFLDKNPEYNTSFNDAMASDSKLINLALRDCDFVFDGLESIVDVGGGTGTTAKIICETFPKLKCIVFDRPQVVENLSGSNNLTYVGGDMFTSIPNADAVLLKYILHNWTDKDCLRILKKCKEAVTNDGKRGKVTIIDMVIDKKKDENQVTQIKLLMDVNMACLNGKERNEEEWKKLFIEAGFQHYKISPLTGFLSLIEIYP
The settings on record: reported by He et al., 1998; cited from earlier work.

The nature of data set [1]: Quantification of methylated products in reactions with dihydrodaidzein. In kind it is biochemical. As to the method: (§1) Reactions (200 μl) were performed in 0.1 M potassium phosphate, pH 7.4, 10% (w/v) sucrose, 14 mM β-mercaptoethanol with 10 μM protein, 0.5 mM S-adenosyl-L-methionine, and 80 μM phenolic substrates. All substrates were purchased from Indofine (Hillsborough, N.J.) except 6,7-dihydroxy-4′-methoxyisoflavone, dihydrodaidzein, and vestitol, which were purchased from Apin (Oxfordshire, UK). […] OMT assays were incubated at 30° C. for 2 h and extracted with ethyl acetate. Ethyl acetate extracts were dried under N2 and the resultant material was resuspended in 50-100 μl of methanol. Samples were analyzed on an Agilent 1100 HPLC, equipped with a quaternary pump (model #G1311A), a degasser (model #G1322A), an autosampler (model #G1313A), and a diode array detector (model #G1315A). Samples of 20 μl were applied to an ODS2 reverse-phase column (5 μm particle size, 4.6×250 mm) and eluted in 1% (v/v) phosphoric acid with an increasing gradient of acetonitrile (0-5 min, 25%; 5-35 min, 25-50%; 35-39 min, 50-100%) at a flow rate of 1 ml/min. To resolve the 4′-O-methylated and 7-O-methylated products of genistein, samples were applied to a Phenomenex SYNERGI Polar-RP 80 Å column (4 μm particle size, 4.6×250 mm) and eluted in water with an increasing gradient of acetonitrile (0-5 min, 20%; 5-17 min, 20-38%; 17-33 min, 38%; 33-45 min, 38-56%; 45-46 min, 56-100%) at a flow rate of 1 ml/min. Chiral chromatography was performed as described (Liu et al., 2005).
An HP 1100 series II LC system (Hewlett-Packard, Palo Alto, Calif.) with a photodiode array detector was coupled to a Bruker Esquire ion-trap mass spectrometer (ITMS) equipped with an electrospray ionization source. A reverse phase, C18, 5 μm, 4.6×250 mm column (J. T. Baker, Phillipsburg, N.J.) was used for separations. The mobile phase consisted of 0.1% (v/v) acetic acid using linear gradients of 5-90% acetonitrile (v/v) in 70 min. The flow rate was 0.8 ml/min, and the temperature of the column was kept at 28° C. Both positive- and negative-ion mass spectra were acquired. Positive-ion ESI was performed using an ion source voltage of 4.0 KV and a capillary offset voltage of 86.0 V. Nebulization was aided with a coaxial nitrogen sheath gas provided at a pressure of 60 psi. Desolvation was aided using a counter current nitrogen flow set at a pressure of 12 psi and a capillary temperature of 300° C. Mass spectra were recorded over the range 50-2200 m/z. The ITMS was operated under an ion current control of approximately 10,000 with a maximum acquire time of 100 ms. Tandem mass spectra were obtained in manual mode for targeted masses using an isolation width of 2.0, fragmentation amplitude of 2.2 and threshold set at 6,000.
To determine the regio-specificity of methylation, reaction products were subjected to HPLC separation and identified by comparison to available standards, or subjected to tandem MS analysis (FIGS. 10-13; Table 4)

Data set [2] can be described thus: Specific activity of the purified IOMTs with the most converted substrate. The settings on record: 50 μM S-adenosyl methionine, 100 μM acceptor substrate. In kind it is biochemical. As to the method: (§2) For determination of specific activities, reactions (100 μl) were performed in 0.1 M potassium phosphate, pH 7.4, 10% (w/v) sucrose, 14 mM β-mercaptoethanol with 0.2-μg protein, 50 μM S-adenosyl-L-methionine (0.025 μCi ^14C-SAM per reaction), and 100 μM substrate. Reactions were incubated at 30° C. for 15-25 min and stopped by addition of 4 μl of 1N HCl. Products were extracted into 500 μl of ethyl acetate and 400 μl was used for liquid scintillation counting.

For another data set, the target named is T2, MtIOMT5 (Medicago truncatula, UniProt Q29U70).
T2 construct: His-tag (N); made in house; host or cells: E. coli BL21(DE3)
T2 sequence (Q29U70 1-364): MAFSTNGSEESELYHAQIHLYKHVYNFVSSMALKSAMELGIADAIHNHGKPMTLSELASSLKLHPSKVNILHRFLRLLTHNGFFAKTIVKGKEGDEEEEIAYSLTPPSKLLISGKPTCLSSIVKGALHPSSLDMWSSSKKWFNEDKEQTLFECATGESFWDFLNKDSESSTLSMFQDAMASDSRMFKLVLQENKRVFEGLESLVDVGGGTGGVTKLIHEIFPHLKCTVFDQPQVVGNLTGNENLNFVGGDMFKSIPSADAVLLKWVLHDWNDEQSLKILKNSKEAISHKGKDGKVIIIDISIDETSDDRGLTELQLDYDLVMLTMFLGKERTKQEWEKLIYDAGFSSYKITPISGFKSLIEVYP
Nature of the data set: OMT assays with purified recombinant MtIOMT5 (relative activity; HPLC/MS of products). Type of data set: biochemical. The settings on record: for Position of methylation / reaction products, MtIOMT5: HPLC against standards, tandem MS.
Source text: (§3) Cloning of MtIOMT5 (corresponding to TC 100926, TIGR MtGI v.8) was as described previously (Liu et al., 2005). To obtain a full-length cDNA for MtIOMT2, specific primers designed based upon the M. truncatula genomic sequence were used to amplify the MtIOMT2 coding sequence from M. truncatula root cDNA. The amplified product was cloned into the pGEM®-T easy vector (Promega, Madison Wis.) and sequenced to confirm its identity. MtIOMTs were cloned into the pET28a vector (EMD Biosciences, Inc., San Diego, Calif.) using PCR-based amplification with primers designed to introduce EcoRI and XhoI restriction sites; BamHI and XhoI sites were used for cloning MtIOMT6 due to the presence of an internal EcoRI site in this particular cDNA. Because the EST for MtIOMT8 was missing a start codon, the primer designed to clone MtIOMT8 into pET28a contained an additional 2-nucleotide insertion to generate an ATG start site. All MtIOMTs were expressed as translational fusions to an N-terminal His-tag. Expression of MtIOMTs in E. coli BL21(DE3) and purification by Ni^2+-NTA chromatography were as described (Zubieta et al., 2001). Proteins were dialyzed against 20 mM Tris pH 8.0, 100 mM NaCl, 10% (v/v) glycerol, and 14 mM β-mercaptoethanol. Protein concentration was determined by Bradford assay using BSA as a standard (Bradford, 1976).
as §1, §2
An HP 1100 series II LC system (Hewlett-Packard, Palo Alto, Calif.) with a photodiode array detector was coupled to a Bruker Esquire ion-trap mass spectrometer (ITMS) equipped with an electrospray ionization source. A reverse phase, C18, 5 μm, 4.6×250 mm column (J. T. Baker, Phillipsburg, N.J.) was used for separations. The mobile phase consisted of 0.1% (v/v) acetic acid using linear gradients of 5-90% acetonitrile (v/v) in 70 min. The flow rate was 0.8 ml/min, and the temperature of the column was kept at 28° C. Both positive- and negative-ion mass spectra were acquired. […]

For another data set, the system named is MtIOMT7. Nature of the data set: OMT assays with purified recombinant MtIOMT7 (relative activity; HPLC/MS of products). The settings on record: 50 μM S-adenosyl methionine, 100 μM acceptor substrate; most converted substrate = 100%. In kind it is biochemical, Medicago truncatula.
Source text: as §3, §1, §2
An HP 1100 series II LC system (Hewlett-Packard, Palo Alto, Calif.) with a photodiode array detector was coupled to a Bruker Esquire ion-trap mass spectrometer (ITMS) equipped with an electrospray ionization source. A reverse phase, C18, 5 μm, 4.6×250 mm column (J. T. Baker, Phillipsburg, N.J.) was used for separations. The mobile phase consisted of 0.1% (v/v) acetic acid using linear gradients of 5-90% acetonitrile (v/v) in 70 min. The flow rate was 0.8 ml/min, and the temperature of the column was kept at 28° C. Both positive- and negative-ion mass spectra were acquired.

Where no end group is shown, it is not given here.

As for `COc1ccc(-c2coc3cc(O)cc(O)c3c2=O)cc1` [biochanin A], the “Activity of MsI7OMT with 4′-methoxyisoflavones (in words)” value on MsI7OMT was “little activity”.
In the case of “MtIOMT1: M. truncatula isoflavonoid O-methyltransferase, His-tagged, expressed in E. coli; GenBank AY942159 (TYVGGDMFTSIPNADAVLLKYILHNWTDKDCTRILKKCKE; cysteine pairing not given here; also: His-tagged; listed as Medicago truncatula)”, in data set [1], the “% 4′-Methylated” value was 0%, the “% 7-Methylated” value is given as over 99%, the “% Dimethylated” value is under 1% and the “Ratio 4′/7-methylated” value is 0. Also, the “Specific activity at 100%” value in data set [2] is recorded as 3646.7 pkat/mg.
As to `O=C1c2ccc(O)cc2OC(O)C1c1ccc(O)cc1` (stereo not drawn) [2,7,4′-trihydroxyisoflavanone], the “Relative activity, MtIOMT5” value on MtIOMT5 (50 μM S-adenosyl methionine, 100 μM acceptor substrate, most converted substrate = 100%) amounted to 100%. The “Position of methylation / reaction products, MtIOMT5” value on MtIOMT5 is on record as “exclusively methylated on the 4′-position”. Further, the “Relative activity, MtIOMT7” value in the data set on MtIOMT7 came out at 24.8%.
Consider “MtIOMT3: M. truncatula isoflavonoid O-methyltransferase, His-tagged, expressed in E. coli; GenBank DQ419911 (TYVGGDMFISVPKADAVLLKAVLHDWTDKDCIKILKKCKE; cysteine pairing not given here; also: His-tagged; listed as Medicago truncatula)”, for which, in data set [1], the “% 4′-Methylated” value stood at 92%, the “% 7-Methylated” value was 8%, the “% Dimethylated” value was 0% and the “Ratio 4′/7-methylated” value is given as 11.4. For the same molecule, the “Specific activity at 100%” value in data set [2] amounted to 7.4 pkat/mg.
On to `O=C1C[C@@H](c2ccc(O)cc2)Oc2cc(O)ccc21` [Liquiritigenin], for which the “Position of methylation / reaction products, MtIOMT5” value at MtIOMT5 is on record as “methylated on the 4′-positions”. In addition, the “Enantiomer methylated, MtIOMT5” value on MtIOMT5 (chiral HPLC of unreacted substrate) is recorded as “preferentially methylates the (2R)-enantiomer”.
With “MtIOMT2: M. truncatula isoflavonoid O-methyltransferase, His-tagged, expressed in E. coli; GenBank DQ419910 (NFVGGDMFKSVPSADAVLLKWVLHDWNDELCLKILKNCKE; His tag; listed as Medicago truncatula)”, in data set [1], the “% 4′-Methylated” value was 33%, the “% 7-Methylated” value amounted to 66%, the “% Dimethylated” value is on record as under 1% and the “Ratio 4′/7-methylated” value was found to be 0.5. The “Specific activity at 100%” value in data set [2] worked out at 930.2 pkat/mg.

(Values after patent US8809627B2, “Plant isoflavone and isoflavanone O-methyltransferase genes” (The Samuel Roberts Noble Foundation, Inc., priority 2006, dated 2014).)
